# Assay results: paper PMC8945721, “Sulphoraphane Affinity-Based Chromatography for the Purification of Myrosinase from Lepidium sativum Seeds” (Biomolecules, 2022)
# System: T1, myrosinase from Lepidium sativum seeds
# T1 construct: gene beta-thioglucoside glucohydrolase
# Experiment: glucose release, glucose oxidase-peroxidase coupled assay, Michaelis-Menten fit
# Type: biochemical
# Conditions: pH 6.0, 37 °C, 100 μM L-ascorbic acid; read-out: KM (×10^-3 mol/L)
# Text: glucose release, glucose oxidase-peroxidase coupled assay, Michaelis-Menten fit on myrosinase from Lepidium sativum seeds
row,SMILES,Km
1,C[S+]([O-])CCCC/C(=N/OS(=O)(=O)O)S[C@@H]1O[C@H](CO)[C@@H](O)[C@H](O)[C@H]1O (stereo partly drawn) [Glucoraphanin],1130 ± 256 µM
2,O=S(=O)(O)O/N=C(/Cc1ccc(O)cc1)S[C@@H]1O[C@H](CO)[C@@H](O)[C@H](O)[C@H]1O [Sinalbin],632 ± 235 µM
3,C=CC/C(=N/OS(=O)(=O)O)S[C@@H]1O[C@H](CO)[C@@H](O)[C@H](O)[C@H]1O [Sinigrin],574 ± 237 µM
